In paper PMC8850549 (Toxicology Reports, 2022):
Values joined by “and” are separate entries in the source; they are usually repeats but may differ in a detail not shown here. Equal values may be shown once. “Also recorded” adds a separate entry of the source. Read-outs that look alike come from different tables or passages of the source.

Experiments:
[1] = tested on: Salmonella typhimurium and E. coli strains; experiment: Bacterial reverse mutation test; assay type: cell-based; settings: rat liver S9, solvent water
TA1535 = settings: cited from earlier work
bacterial mutagenicity = settings: cited from earlier work
[2] = tested on: Salmonella typhimurium TA100; experiment: Bacterial reverse mutation test; assay type: cell-based; settings: for mutagenic response (increase in mutation frequencies): with rat liver S9, preincubation and plate incorporation
[3] = tested on: Salmonella typhimurium TA1535; experiment: Bacterial reverse mutation test; assay type: cell-based; settings: for mutagenic response (increase in mutation frequencies): with rat liver S9, preincubation and plate incorporation; for fold increase in mutation frequencies: rat liver S9, 5000 μg/plate
E. coli WP2 uvrA = experiment: Bacterial reverse mutation test; assay type: cell-based; settings: for mutagenic response (increase in mutation frequencies): with rat liver S9, preincubation and plate incorporation
TA98 = experiment: Bacterial reverse mutation test; assay type: cell-based, Salmonella typhimurium; settings: under any condition (preincubation or plate incorporation, with or without S9)
TA1537 = experiment: Bacterial reverse mutation test; assay type: cell-based, Salmonella typhimurium; settings: under any condition (preincubation or plate incorporation, with or without S9)
[4] = plate incorporation, solvent DMSO, rat liver S9, at 5000 μg/plate only
[5] = preincubation, solvent water, rat liver S9, 5000 μg/plate

## CN(C)N=O [NDMA, N-nitrosodimethylamine]
[1]; plate incorporation protocol
  detection of mutagenicity: fails; also recorded: no clear positive response
[1]; preincubation protocol
  detection of mutagenicity: allows the detection of mutagenicity
TA1535; hamster S9
  mutagenicity: mutagenic
TA1535; rat S9
  mutagenicity: not with rat S9
Bacterial mutagenicity; plate incorporation
  detection of bacterial mutagenicity: failed
Bacterial mutagenicity; preincubation protocol
  detection of bacterial mutagenicity: allowed to detect

## CCCN(CCC)N=O [NDPA, N-nitrosodipropylamine]
[2]
  mutagenic response (increase in mutation frequencies): relevant increases
[3]
  mutagenic response (increase in mutation frequencies): relevant increases
E. coli WP2 uvrA
  mutagenic response (increase in mutation frequencies): relevant increases

## CCN(CC)N=O [NDEA, N-nitrosodiethylamine]
[2]; [4]
  fold increase in mutation frequencies (above threshold): > 2 fold
[2]; preincubation, rat liver S9
  fold change with water compared with DMSO as solvent: no change
[2]; [5]
  fold increase in mutation frequencies: about 4 fold
[2]
  mutagenic response (increase in mutation frequencies): exponential increase in mutation frequencies
[3]; [4]
  fold increase in mutation frequencies (above threshold): > 3 fold
[3]; preincubation, rat liver S9
  fold change with water compared with DMSO as solvent: slightly increased fold changes; also recorded: slightly higher mutation frequencies
[3]; preincubation, solvent DMSO
  fold increase in mutation frequencies: ~5 fold and 4 fold
[3]; preincubation, solvent water
  fold increase in mutation frequencies: ~9 fold
[3]
  mutagenic response (increase in mutation frequencies): exponential increase in mutation frequencies
E. coli WP2 uvrA; plate incorporation, solvent DMSO, rat liver S9, top concentration 5000 μg/plate
  fold increase in mutation frequencies: 12 fold
E. coli WP2 uvrA; preincubation, rat liver S9
  fold change with water compared with DMSO as solvent: slightly increased fold changes; also recorded: slightly higher mutation frequencies
E. coli WP2 uvrA; preincubation, solvent DMSO, rat liver S9, 5000 μg/plate
  fold increase in mutation frequencies: ~30 fold
E. coli WP2 uvrA; [5]
  fold increase in mutation frequencies: ~39 fold
E. coli WP2 uvrA
  mutagenic response (increase in mutation frequencies): exponential increase in mutation frequencies
TA98
  mutagenic response: no response
TA1537
  mutagenic response: no response
TA1535; hamster S9
  mutagenicity: mutagenic
TA1535; rat S9
  mutagenicity: not with rat S9

## CCCCN(CCCC)N=O [NDBA, N-nitrosodibutylamine]
[2]
  mutagenic response (increase in mutation frequencies): relevant increases
[3]; rat liver S9, solvent DMSO
  fold induction, plate incorporation compared with preincubation: higher fold inductions using the plate incorporation protocol
[3]
  mutagenic response (increase in mutation frequencies): relevant increases
E. coli WP2 uvrA; rat liver S9, solvent DMSO
  fold induction, plate incorporation compared with preincubation: higher fold inductions using the plate incorporation protocol
E. coli WP2 uvrA
  mutagenic response (increase in mutation frequencies): relevant increases
